Source: patent US20230248741A1, “Compositions and Methods for Lowering Triglycerides in a Subject with Reduced Kidney Function and Diabetes Mellitus” (Amarin Pharmaceuticals Ireland Limited, priority 2018, published 2023)

Columns and labels:
Format in all cases: in vivo, human
[1] = test system: patients with eGFR <90 mL/min/1.73 m^2 for ≥3 months and hsCRP ≥2.0 mg/L; assay: ANCHOR post-hoc (eGFR <90, hsCRP ≥2.0 mg/L): renal parameters; conditions: 4 g/day
Description: (§1) CVD-related (e.g., atherogenic) parameters were analyzed in a post-hoc study of 152 patients from the multi-center, placebo-controlled, randomized double-blind, 12-week study described in Example 1. These 152 patients have reduced kidney reduced function (e.g., eGFR<90 mL/min/1.73 m^2 for ≥3 months) and hsCRP≥2.0 mg/L.

[2] = test system: patients with diabetes mellitus and eGFR <90 mL/min/1.73 m^2 for ≥3 months; assay: ANCHOR post-hoc (diabetes mellitus, eGFR <90): adverse events and renal parameters
Description: Safety assessments will include adverse events, clinical laboratory measurements (chemistry, hematology, and urinalysis), 12-lead electrocardiograms (ECGs), vital signs, and physical examinations.
as §1, with “198” for “152”, “diabetes mellitus.” for “hsCRP≥2.0 mg/L.”
In this study, 6 patients in the placebo group discontinued (i.e., withdrawal with consent [n=2]; adverse event [n=2]; death [n=1]; other reason [n=1] and 4 patients from the 4 g/day group discontinued (i.e., adverse event [n=3] and other reason [n=1]). The death in the placebo group was due to myocardial infarction and not considered to be assigned to the investigational agent.

[3] = test system: subjects with Age-Associated Memory Impairment; assay: Safety and tolerability (TEAEs), 6-week AAMI study
Description: All randomized subjects that received at least 1 dose of study medication were included in the Safety Population.
Safety evaluations were based on the safety population. Safety and tolerability were assessed in terms of AEs, vital signs, 12-lead ECG, clinical laboratory data, medical history, and study drug compliance. Safety and tolerability data were presented by treatment group.

[4] = test system: patients with fasting TG ≥200 and <500 mg/dl despite statin therapy; assay: ANCHOR study, entire population: fasting TG; conditions: 4 g/day
Description: A multi-center, placebo-controlled, randomized, double-blind, 12-week study is performed to evaluate the efficacy and safety of >96% E-EPA in patients with fasting triglyceride levels ≥200 mg/dl and <500 mg/dl despite statin therapy (the mean of two qualifying entry values needs to be ≥185 mg/dl and at least one of the values needs to be ≥200 mg/dl). The primary objective of the study is to determine the efficacy of >96% E-EPA 2 g daily and 4 g daily, compared to placebo, in lowering fasting TG levels in patients with high risk for cardiovascular disease and with fasting TG levels ≥200 mg/dL and <500 mg/dL, despite treatment to LDL-C goal on statin therapy.
The primary efficacy variable for the double-blind treatment period is percent change in TG from baseline to Week 12 endpoint. […]

CC/C=C\C/C=C\C/C=C\C/C=C\C/C=C\CCCC(=O)OCC [E-EPA, ethyl eicosapentaenoate]
serum creatinine after 12 weeks ([1]; before 0.9 mg/dL, no change): 0.9 mg/dL
albumin after 12 weeks ([1]; before 4.5 g/dL, no statistically significant change): 4.4 g/dL
eGFR after 12 weeks ([1]; increase from 72.4): 78.5 mL/min/1.73 m^2
renal function ([2]; 4 g/day): no negative impact on renal function
Patients With TEAEs: Any TEAE ([2]; 4 g/day (n = 100)): 49 (49.0) n (%)
Patients With TEAEs: Arthralgia ([2]; 4 g/day (n = 100)): 1 (1.0) n (%)
Patients With TEAEs: Diarrhea ([2]; 4 g/day (n = 100)): 5 (5.0) n (%)
Patients With TEAEs: Nasopharyngitis ([2]; 4 g/day (n = 100)): 1 (1.0) n (%)
Patients With TEAEs: Nausea ([2]; 4 g/day (n = 100)): 3 (3.0) n (%)
patients discontinued due to adverse event ([2]; 4 g/day group, 4 discontinued in total): 3 n
serum creatinine after 12 weeks ([2]; 4 g/day, before 0.9 mg/dL, no significant change): 0.9 mg/dL
BUN after 12 weeks ([2]; 4 g/day, before 18 mg/dL, no significant change): 18 mg/dL
albumin after 12 weeks ([2]; 4 g/day, before 4.5 g/dL, no significant change): 4.5 g/dL
eGFR after 12 weeks ([2]; 4 g/day, before 75.4, no significant change): 79.1 mL/min/1.73 m^2
subjects with nausea Possibly Related to the study drug ([3]; 1 g E-EPA cohort): two
TEAE Probably Related to the study drug ([3]; 1 g E-EPA, one subject): nausea
subjects with nausea Possibly Related to the study drug ([3]; 2 g E-EPA cohort): one
Serious Adverse Event (worsening epigastric chest pain), relation to study drug ([3]; 2 g E-EPA, one subject): unrelated to the study drug
subjects with nausea Possibly Related to the study drug ([3]; 4 g E-EPA cohort): two
TEAE Probably Related to the study drug ([3]; 4 g E-EPA, one subject): diarrhea
SAE reported ([3]; E-EPA 2 g treatment group): One
subjects discontinued due to TEAEs ([3]; E-EPA 2 g treatment group): 2 subjects
TEAEs reported ([3]; E-EPA treatment groups (1, 2, 4 g), placebo groups 34 events): 105 events
TEAEs Definitely Related to the study drug ([3]; all groups): No TEAEs were Definitely Related to the study drug
deaths during the study ([3]; all groups): no deaths
median TGs reduction from baseline [4]: −21.5%
